Measurements from ChEMBL document CHEMBL3046717, “Synthesis of Alkylene-Tethered Bis-Imidacloprid Derivatives as Highly Insecticidal and Nerve-Exciting Agents with Potent Affinity to [3H] Imidacloprid-Binding Sites on Nicotinic Acetylcholine Receptor” (J Pestic Sci, 2002).

What was measured:
[1] = system: Periplaneta americana; experiment: Insecticidal activity against Periplaneta americana (American cockroach) assessed as killing compound injected into abdomen of cockroach after 24 hr measured per insect; assay type: functional
[2] = system: Periplaneta americana; experiment: (§1) Insecticidal activity against Periplaneta americana (American cockroach) assessed as killing compound injected into abdomen of cockroach after 24 hr in presence of 50 ug piperonyl butoxide oxidative metabolism inhibitor and 50 ug propargyl propyl benzenephosphonate inhibitor of hydrolytic measured per insect relative to compound alone; assay type: functional
[3] = system: Periplaneta americana; experiment: as §1, with “insect” for “insect relative to compound alone”; assay type: functional
[4] = system: Periplaneta americana; experiment: as §1, with “ug” for “ug piperonyl butoxide oxidative metabolism inhibitor and 50 ug”, “hydrolytic metabolism of tetramethrin pyrethroid” for “hydrolytic”; assay type: functional
[5] = system: Periplaneta americana; experiment: Insecticidal activity against Periplaneta americana (American cockroach) assessed as killing compound injected into abdomen of cockroach after 24 hr in presence of 50 ug piperonyl butoxide oxidative metabolism inhibitor measured per insect; assay type: functional
[6] = system: Periplaneta americana; experiment: Insecticidal activity against Periplaneta americana (American cockroach) assessed as killing compound injected into abdomen of cockroach after 24 hr in presence of 50 ug piperonyl butoxide oxidative metabolism inhibitor measured per insect relative to compound alone; assay type: functional
[7] = system: Periplaneta americana; experiment: Insecticidal activity against Periplaneta americana (American cockroach) assessed as killing compound injected into abdomen of cockroach after 24 hr in presence of 50 ug propargyl propyl benzenephosphonate inhibitor of hydrolytic metabolism of tetramethrin pyrethroid measured per insect; assay type: functional
[8] = target: T1, Nicotinic acetylcholine receptor alpha 5 subunit (Musca domestica) (UniProt A9XFY4); experiment: Displacement of [3H]imidacloprid from Musca domestica (house fly)-head membrane nAChR relative to N,N'-(3,3'-(hexane-1,6-diyl)bis(1-((6-chloropyridin-3-yl)methyl)imidazolidin-3-yl-2-ylidene))dinitramide
T1 sequence (whole entry): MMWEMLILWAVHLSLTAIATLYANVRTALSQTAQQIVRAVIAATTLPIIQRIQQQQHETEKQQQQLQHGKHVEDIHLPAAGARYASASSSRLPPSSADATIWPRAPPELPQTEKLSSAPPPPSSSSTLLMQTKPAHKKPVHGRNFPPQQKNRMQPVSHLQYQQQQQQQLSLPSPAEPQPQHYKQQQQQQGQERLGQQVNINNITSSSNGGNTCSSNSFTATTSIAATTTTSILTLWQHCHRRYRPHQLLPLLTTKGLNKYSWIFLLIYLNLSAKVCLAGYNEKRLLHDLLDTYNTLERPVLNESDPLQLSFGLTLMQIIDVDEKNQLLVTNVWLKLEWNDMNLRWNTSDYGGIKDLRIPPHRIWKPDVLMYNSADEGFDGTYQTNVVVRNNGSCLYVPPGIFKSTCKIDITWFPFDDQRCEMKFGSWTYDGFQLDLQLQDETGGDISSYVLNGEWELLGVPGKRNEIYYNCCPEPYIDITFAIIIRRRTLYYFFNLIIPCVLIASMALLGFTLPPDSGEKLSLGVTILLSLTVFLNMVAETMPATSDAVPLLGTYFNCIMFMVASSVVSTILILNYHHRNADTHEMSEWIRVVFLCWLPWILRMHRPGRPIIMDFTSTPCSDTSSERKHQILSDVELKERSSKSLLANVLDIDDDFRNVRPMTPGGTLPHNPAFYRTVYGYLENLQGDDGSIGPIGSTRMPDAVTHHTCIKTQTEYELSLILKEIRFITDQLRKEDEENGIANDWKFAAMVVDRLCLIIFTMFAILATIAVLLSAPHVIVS

[9] = target: T2, Nicotinic acetylcholine receptor alpha 5 subunit (Musca domestica, UniProt A9XFY4); experiment: Displacement of [3H]imidacloprid from Musca domestica (house fly)-head membrane nAChR
T2 sequence (A9XFY4 whole entry): T1 sequence (whole entry)

[10] = system: Periplaneta americana; experiment: Insecticidal activity against Periplaneta americana (American cockroach) assessed as changes in frequency of firing in nerve cords in nerve preparation measured for every 30 secs immediately after treatment at 3x10'-6 M by electrophysiological method; assay type: functional, organism-based; details: TDE = time-dependent effect
[11] = system: Periplaneta americana; experiment: Insecticidal activity against Periplaneta americana (American cockroach) assessed as changes in frequency of firing in nerve cords in nerve preparation measured for every 30 secs immediately after treatment at 9x10'-7 M by electrophysiological method; assay type: functional; details: TDE = time-dependent effect

Structure (SMILES)	MLD [1] [nmol]	Ratio [2]	MLD [3] [nmol]	Ratio [4]	MLD [5] [nmol]	Ratio [6]	MLD [7] [nmol]	Ratio [8]	IC50 [9] [µM]	Activity [10]	Activity [11]
O=[N+]([O-])/N=C1/N(CCCN2CCN(Cc3ccc(Cl)nc3)/C2=N/[N+](=O)[O-])CCN1Cc1ccc(Cl)nc1	4.9	6	0.79	–	–	–	–	–	–	–	–
O=[N+]([O-])/N=C1\N(Cc2ccc(N3CCN(Cc4ccc(Cl)nc4)/C3=N\[N+](=O)[O-])cc2)CCN1Cc1ccc(Cl)nc1	27	50	0.54	10	6.7	4	2.7	–	–	–	–
O=[N+]([O-])/N=C1/N(CCCOCCCN2CCN(Cc3ccc(Cl)nc3)/C2=N/[N+](=O)[O-])CCN1Cc1ccc(Cl)nc1	5.9	20	0.3	20	0.23	26	0.3	0.042	73	–	–
O=[N+]([O-])/N=C1\N(CCCCN2CCN(Cc3ccc(Cl)nc3)/C2=N/[N+](=O)[O-])CCN1Cc1ccc(Cl)nc1	11	2	6.5	–	–	–	–	–	–	–	–
O=[N+]([O-])/N=C1/N(Cc2ccc(Cl)nc2)CCN1Cc1cccc(N2CCN(Cc3ccc(Cl)nc3)/C2=N\[N+](=O)[O-])c1	20	20	1	–	–	–	–	–	–	–	–
O=[N+]([O-])/N=C1\N(CCCCCCCCN2CCN(Cc3ccc(Cl)nc3)/C2=N/[N+](=O)[O-])CCN1Cc1ccc(Cl)nc1	4.5	26	0.17	–	–	–	–	–	–	–	–
O=[N+]([O-])NC1=NCCN1Cc1ccc(Cl)nc1 [IMIDACLOPRID]	–	–	–	–	–	–	–	–	0.02	–	–
O=[N+]([O-])/N=C1\N(CCN2CCN(Cc3ccc(Cl)nc3)/C2=N/[N+](=O)[O-])CCN1Cc1ccc(Cl)nc1	8.3	8	1.1	4	8.3	1	2.2	0.028	110	–	–
O=[N+]([O-])/N=C1/N(CCCCCCCCCN2CCN(Cc3ccc(Cl)nc3)/C2=N/[N+](=O)[O-])CCN1Cc1ccc(Cl)nc1	2.8	16	0.17	–	–	–	–	–	–	–	–
O=[N+]([O-])/N=C1\N(CCCCCCN2CCN(Cc3ccc(Cl)nc3)/C2=N/[N+](=O)[O-])CCN1Cc1ccc(Cl)nc1	2.2	8	0.29	10	0.58	4	0.22	–	3.1	tde	tde
O=[N+]([O-])/N=C1\N(CCCCCCCCCCN2CCN(Cc3ccc(Cl)nc3)/C2=N/[N+](=O)[O-])CCN1Cc1ccc(Cl)nc1	3.7	16	0.23	19	1.5	2	0.19	0.11	27	–	–
O=[N+]([O-])/N=C1/N(CCCCCN2CCN(Cc3ccc(Cl)nc3)/C2=N/[N+](=O)[O-])CCN1Cc1ccc(Cl)nc1	3.9	24	0.16	–	–	–	–	–	–	–	–
O=[N+]([O-])/N=C1\N(CC#CCN2CCN(Cc3ccc(Cl)nc3)/C2=N/[N+](=O)[O-])CCN1Cc1ccc(Cl)nc1	3.7	12	0.3	–	–	–	–	–	–	–	–
O=[N+]([O-])/N=C1\N(C/C=C/CN2CCN(Cc3ccc(Cl)nc3)/C2=N/[N+](=O)[O-])CCN1Cc1ccc(Cl)nc1	30	20	1.5	–	–	–	–	–	–	–	–
O=[N+]([O-])/N=C1/N(CCCCCCCN2CCN(Cc3ccc(Cl)nc3)/C2=N/[N+](=O)[O-])CCN1Cc1ccc(Cl)nc1 [Heptamethylene 1,7-bis-imadacloprid]	2.8	13	0.22	–	–	–	–	–	–	–	–
O=[N+]([O-])/N=C1\NCCN1Cc1ccc(Cl)nc1 [IMIDACLOPRID]	2.5	36	0.07	13	0.78	3	0.19	160	–	–	–
